# In ChEMBL document CHEMBL4033690, “Potential anti-gout constituents as xanthine oxidase inhibitor from the fruits of Stauntonia brachyanthera” (Bioorg Med Chem, 2017):
# Biological target: Xanthine dehydrogenase/oxidase (Homo sapiens, UniProt P47989)
# Experiment: Inhibition of xanthine oxidase (unknown origin) using xanthine as substrate preincubated for 15 mins followed by substrate addition by spectrophotometric method
# Xanthine dehydrogenase/oxidase, sequence (P47989 whole entry): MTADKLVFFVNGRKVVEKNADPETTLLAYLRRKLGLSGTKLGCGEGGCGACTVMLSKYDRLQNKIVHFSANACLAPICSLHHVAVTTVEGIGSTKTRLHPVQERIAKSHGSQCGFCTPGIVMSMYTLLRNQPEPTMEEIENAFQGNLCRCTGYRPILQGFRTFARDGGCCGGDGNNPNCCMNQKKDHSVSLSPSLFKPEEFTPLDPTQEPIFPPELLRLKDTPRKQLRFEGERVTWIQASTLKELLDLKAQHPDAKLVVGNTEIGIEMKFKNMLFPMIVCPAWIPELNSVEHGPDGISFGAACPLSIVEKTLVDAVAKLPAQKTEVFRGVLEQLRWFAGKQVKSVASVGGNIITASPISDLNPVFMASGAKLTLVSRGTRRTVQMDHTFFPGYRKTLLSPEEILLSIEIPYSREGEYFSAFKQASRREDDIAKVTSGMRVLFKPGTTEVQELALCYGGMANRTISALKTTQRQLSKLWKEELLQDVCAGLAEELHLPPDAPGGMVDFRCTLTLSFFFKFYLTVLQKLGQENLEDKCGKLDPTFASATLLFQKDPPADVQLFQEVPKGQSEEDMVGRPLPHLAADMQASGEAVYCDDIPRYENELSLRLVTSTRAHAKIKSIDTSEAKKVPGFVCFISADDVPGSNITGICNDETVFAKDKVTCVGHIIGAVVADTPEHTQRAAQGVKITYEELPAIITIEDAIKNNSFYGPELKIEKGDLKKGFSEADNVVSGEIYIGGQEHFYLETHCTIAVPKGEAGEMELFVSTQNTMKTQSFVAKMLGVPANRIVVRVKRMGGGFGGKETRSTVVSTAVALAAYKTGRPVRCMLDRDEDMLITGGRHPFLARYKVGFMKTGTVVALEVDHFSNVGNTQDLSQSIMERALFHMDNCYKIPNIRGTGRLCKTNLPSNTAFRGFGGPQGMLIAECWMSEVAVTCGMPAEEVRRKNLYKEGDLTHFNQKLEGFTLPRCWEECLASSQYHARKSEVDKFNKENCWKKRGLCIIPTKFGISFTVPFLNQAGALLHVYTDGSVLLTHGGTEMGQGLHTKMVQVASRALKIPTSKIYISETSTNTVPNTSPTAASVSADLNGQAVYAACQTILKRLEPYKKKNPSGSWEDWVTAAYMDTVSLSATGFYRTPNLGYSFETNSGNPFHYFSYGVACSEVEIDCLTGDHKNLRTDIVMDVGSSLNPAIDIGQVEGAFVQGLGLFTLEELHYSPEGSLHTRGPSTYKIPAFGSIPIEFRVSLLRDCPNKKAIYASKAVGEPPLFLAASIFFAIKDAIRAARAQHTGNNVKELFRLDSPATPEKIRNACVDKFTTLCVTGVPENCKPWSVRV
row,IC50,Compound
1,> 100 µM,C=C1CC[C@]2(C(=O)O[C@@H]3O[C@H](CO[C@@H]4O[C@H](CO)[C@@H](O[C@@H]5O[C@@H](C)[C@H](O)[C@@H](O)[C@H]5O)[C@H](O)[C@H]4O)[C@@H](O)[C@H](O)[C@H]3O)CC[C@]3(C)C(=CC[C@@H]4[C@@]5(C)CC[C@H](O[C@@H]6O[C@H](CO)[C@@H](O)[C@H](O[C@@H]7OC[C@H](O)[C@H](O)[C@H]7O[C@@H]7O[C@@H](C)[C@H](O)[C@@H](O)[C@H]7O)[C@H]6O)C(C)(C)[C@@H]5CC[C@]43C)[C@@H]2C1
2,> 100 µM,COc1cc(C(=O)OC[C@@]2(O)CO[C@@H](O[C@H]3[C@H](Oc4ccc(C(=O)O)cc4OC)O[C@H](CO)[C@@H](O)[C@@H]3O)[C@@H]2O)ccc1O
3,1.6 µM,O=c1c(O[C@@H]2O[C@H](CO)[C@@H](O)[C@H](O)[C@H]2O)c(-c2ccc(O)c(O)c2)oc2cc(O)cc(O)c12 [ISOQUERCETIN]
